Drawing on PubChem BioAssay AID1918996 (Molecular Pharmacology Branch, DTP, NCI, 2023), this text covers IC50 and viability, T/C for 5 compounds.

“And” between values parts separate entries of the source, which are not always exact repeats. Equal entries are not always repeated. A value given as a limit tells only on which side of the number the result lay.

By IC50 is commonly meant the concentration that inhibits the measured activity by half. For orientation: viability, T/C means the ratio of treated to control.

The test system of the test is 349418-098-R-PDC complex spheroid growth. Nature of the test: Anticancer human tumor 349418-098-R-PDC patient-derived lung adenocarcinoma cell line growth inhibition [AhR]. The conditions noted are these: for viability, T/C: stronger effect = lower value. An outline of the steps:
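Agents were dosed in half-log steps down from roughly clinical Cmax, or from 10 microM where Cmax was unknown, alone and with AhR antagonists. Read-out: percent test/control growth of tumor spheroids containing HUVEC and MSC stromal cells.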

Setting [1] is: curve of first compound, second compound 0.1 µM.
The mark [2] stands for this setting: curve of first compound, second compound 0.316 µM.
Where [3] appears, read: curve of first compound, second compound 1 µM.
Setting [4] is: curve of first compound, second compound 3.16 µM.
Where [5] appears, read: curve of first compound, second compound 10 µM.
The mark [6] stands for this setting: second compound 0.1 µM, first compound 0.0316 µM.
Setting [7] is: second compound 0.1 µM, first compound 0.1 µM.
[8] abbreviates: second compound 0.1 µM, first compound 0.316 µM.
Where [9] appears, read: second compound 0.1 µM, first compound 1 µM.
Setting [10] is: second compound 0.1 µM, first compound 3.16 µM.
Where [11] appears, read: second compound 0.1 µM, first compound 10 µM.
Setting [12] is: second compound 0.316 µM, first compound 0.0316 µM.
Where [13] appears, read: second compound 0.316 µM, first compound 0.1 µM.
Where [14] appears, read: second compound 0.316 µM, first compound 0.316 µM.
Setting [15] is: second compound 0.316 µM, first compound 1 µM.
Where [16] appears, read: second compound 0.316 µM, first compound 3.16 µM.
[17] abbreviates: second compound 0.316 µM, first compound 10 µM.
Setting [18] is: second compound 1 µM, first compound 0.0316 µM.
The mark [19] stands for this setting: second compound 1 µM, first compound 0.1 µM.
Setting [20] is: second compound 1 µM, first compound 0.316 µM.
Setting [21] is: second compound 1 µM, first compound 1 µM.
Setting [22] is: second compound 1 µM, first compound 3.16 µM.
[23] abbreviates: second compound 1 µM, first compound 10 µM.
Setting [24] is: second compound 3.16 µM, first compound 0.0316 µM.
Setting [25] is: second compound 3.16 µM, first compound 0.1 µM.
Where [26] appears, read: second compound 3.16 µM, first compound 0.316 µM.
Setting [27] is: second compound 3.16 µM, first compound 1 µM.
Setting [28] is: second compound 3.16 µM, first compound 3.16 µM.
[29] abbreviates: second compound 3.16 µM, first compound 10 µM.
Where [30] appears, read: second compound 10 µM, first compound 0.0316 µM.
Where [31] appears, read: second compound 10 µM, first compound 0.1 µM.
Setting [32] is: second compound 10 µM, first compound 0.316 µM.
Setting [33] is: second compound 10 µM, first compound 1 µM.
Where [34] appears, read: second compound 10 µM, first compound 3.16 µM.
The mark [35] stands for this setting: second compound 10 µM, first compound 10 µM.
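Note: spheroids exposed to agents for seven days before luminescence viability read.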
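Throughout, for viability, T/C: spheroids also contain HUVEC endothelial cells and human MSC stroma.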

`O=C(C=Cn1cnc(-c2cc(C(F)(F)F)cc(C(F)(F)F)c2)n1)NNc1cnccn1` + Cc1ccccc1N=Nc1ccc(NC(=O)c2ccnn2C)c(C)c1: the IC50 is, setting by setting: under setting [1], 17.6 nM; under setting [2], < 9.49 nM; under setting [3], < 9.49 nM; under setting [4], < 9.49 nM; under setting [5], < 9.49 nM. The viability, T/C was 67.2% (second compound 0.1 µM, first compound 0.00949 µM); 35.2% (second compound 0.1 µM, first compound 0.03 µM); 17.2% (second compound 0.1 µM, first compound 0.0949 µM); 11.2% (second compound 0.1 µM, first compound 0.3 µM); 9.1% (second compound 0.1 µM, first compound 0.949 µM); 7.11% (second compound 0.1 µM, first compound 3 µM). For the same compound, the viability, T/C by setting is: (second compound 0.316 µM, first compound 0.00949 µM) 37.7%; (second compound 0.316 µM, first compound 0.03 µM) 25.4%; (second compound 0.316 µM, first compound 0.0949 µM) 16.2%; (second compound 0.316 µM, first compound 0.3 µM) 12.2%; (second compound 0.316 µM, first compound 0.949 µM) 10.2%; (second compound 0.316 µM, first compound 3 µM) 5.73%. Besides, the viability, T/C runs as follows: (second compound 1 µM, first compound 0.00949 µM) 37.8%; (second compound 1 µM, first compound 0.03 µM) 29.9%; (second compound 1 µM, first compound 0.0949 µM) 19.4%; (second compound 1 µM, first compound 0.3 µM) 11.9%; (second compound 1 µM, first compound 0.949 µM) 8.42%; (second compound 1 µM, first compound 3 µM) 5.99%. Also, the viability, T/C was 47.9% (second compound 3.16 µM, first compound 0.00949 µM); 33.7% (second compound 3.16 µM, first compound 0.03 µM); 16.9% (second compound 3.16 µM, first compound 0.0949 µM); 11.4% (second compound 3.16 µM, first compound 0.3 µM); 8.44% (second compound 3.16 µM, first compound 0.949 µM); 7.46% (second compound 3.16 µM, first compound 3 µM). Besides, the viability, T/C by setting is: (second compound 10 µM, first compound 0.00949 µM) 34.6%; (second compound 10 µM, first compound 0.03 µM) 22.8%; (second compound 10 µM, first compound 0.0949 µM) 18.5%; (second compound 10 µM, first compound 0.3 µM) 13.8%; (second compound 10 µM, first compound 0.949 µM) 9.78%; (second compound 10 µM, first compound 3 µM) 7.95%.
With `CC1(C)CCC(CN2CCN(c3ccc(C(=O)NS(=O)(=O)c4ccc(NCC5CCOCC5)c([N+](=O)[O-])c4)c(Oc4cnc5[nH]ccc5c4)c3)CC2)=C(c2ccc(Cl)cc2)C1`, the viability, T/C reads like this: (compound 0.0316 µM) 97.2% and 117% and 104%; (compound 0.1 µM) 110% and 106% and 101%; (compound 0.316 µM) 102% and 92.4% and 105%; (compound 1 µM) 94.9% and 91.9% and 76.2%; (compound 3.16 µM) 106% and 100% and 68.8%; (compound 10 µM) 96.6% and 33.3% and 37.7%. Further, the IC50 (curve of compound) was > 10000 nM and 7500 nM and 6060 nM.
With `O=C(C=Cc1cccc(S(=O)(=O)Nc2ccccc2)c1)NO`, the viability, T/C is, setting by setting: (compound 0.0316 µM) 81.9% and 112% and 124%; (compound 0.1 µM) 83.5% and 128% and 78%; (compound 0.316 µM) 60.7% and 73.3% and 78.8%; (compound 1 µM) 48.6% and 42.6% and 41.5%; (compound 3.16 µM) 13.1% and 11.2% and 10.6%; (compound 10 µM) 2.17% and 1.85% and 2.27%. The IC50 (curve of compound) is 720 nM and 731 nM and 657 nM.
For `NS(=O)(=O)OCC1CC(n2ccc3c(NC4CCc5ccccc54)ncnc32)CC1O` (centres undefined) + Cc1cncc(-c2nc(NCCc3c[nH]c4ccccc34)c3ncn(C(C)C)c3n2)c1, the 50% inhibitory concentration (IC50) is, setting by setting: under setting [1], 192 nM; under setting [2], 161 nM; under setting [3], 142 nM; under setting [4], < 31.6 nM; under setting [5], < 31.6 nM. The viability, T/C was 101% under setting [6]; 69.6% under setting [7]; 35.1% under setting [8]; 14.4% under setting [9]; 9.84% under setting [10]; 4.65% under setting [11]. In addition, the viability, T/C is 89.1% under setting [12]; 71.6% under setting [13]; 19% under setting [14]; 12.2% under setting [15]; 6.13% under setting [16]; 4.07% under setting [17]. Also, the viability, T/C was 86.2% under setting [18]; 63.3% under setting [19]; 19.2% under setting [20]; 12.1% under setting [21]; 6.14% under setting [22]; 4.69% under setting [23]. Besides, the viability, T/C under setting [24] was 28.4%; the viability, T/C under setting [25] was 26.2%; the viability, T/C under setting [26] was 18.7%; the viability, T/C under setting [27] is 7.99%; the viability, T/C under setting [28] was 3.97%; the viability, T/C under setting [29] was 3.43%. For the same compound, the viability, T/C under setting [30] is 2.2%; the viability, T/C under setting [31] was 1.97%; the viability, T/C under setting [32] is 1.34%; the viability, T/C under setting [33] is 0.88%; the viability, T/C under setting [34] was 1.03%; the viability, T/C under setting [35] was 0.56%.
On to `COc1cc(Nc2ncc3c(n2)-c2ccc(Cl)cc2C(c2c(F)cccc2OC)=NC3)ccc1C(=O)O` + Cc1ccccc1N=Nc1ccc(NC(=O)c2ccnn2C)c(C)c1, for which the IC50 is 105 nM under setting [1]; 157 nM under setting [2]; 65.7 nM under setting [3]; < 31.6 nM under setting [4]; < 31.6 nM under setting [5]. Also, the viability, T/C is, setting by setting: under setting [6], 70.5%; under setting [7], 50.9%; under setting [8], 30.5%; under setting [9], 30.8%; under setting [10], 33.5%; under setting [11], 31.1%. In addition, the viability, T/C was 64.8% under setting [12]; 63% under setting [13]; 29.8% under setting [14]; 28.5% under setting [15]; 23.4% under setting [16]; 26% under setting [17]. Further, the viability, T/C was 71.8% under setting [18]; 36.6% under setting [19]; 34.4% under setting [20]; 32.3% under setting [21]; 30.5% under setting [22]; 26.5% under setting [23]. Besides, the viability, T/C was 48.7% under setting [24]; 38.1% under setting [25]; 32.2% under setting [26]; 27.1% under setting [27]; 26.8% under setting [28]; 26.6% under setting [29]. Further, the viability, T/C by setting is: under setting [30], 38.9%; under setting [31], 29.7%; under setting [32], 32.2%; under setting [33], 27.1%; under setting [34], 23.6%; under setting [35], 27.1%.
